From patent US6706663B2, “Herbicidal 3-heterocyclic substituted benzisothiazole and benzisoxazole compounds” (Wyeth, priority 2000, dated 2004)

Experiments:
[1] = test system: TRZAWR (Wheat, Winter, cv Riband); test: Preemergence herbicidal evaluation; format: in vivo, Triticum aestivum; details: rated 4-5 weeks after treatment
Method in brief: (§1)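 Rating 0–9, visual, vs control; 4–5 wk after spraying seeded cups with compound in aq. acetone; conventional greenhouse care.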

SETVI (Setaria viridis) = test: Preemergence herbicidal evaluation; format: in vivo, (L.) Beau; details: rated 4-5 weeks after treatment
Method in brief: as §1

[2] = test system: ECHCG (Echinochloa crus-galli); test: Preemergence herbicidal evaluation; format: in vivo, (L.) Beau; details: rated 4-5 weeks after treatment
Method in brief: as §1

[3] = test system: MOOVA (Monochoria vaginalis); test: Flooded paddy, preemergence weed control; format: in vivo, Presl.; details: rated 3-4 weeks after treatment, 0-9 rating scale
Method in brief: (§2)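 Plants were established from seed or propagating organs in flooded silt loam, with the water surface held 1.5 to 3 cm above the soil for the entire experiment. Injury was assessed visually against a control and given a 0-9 score.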

[4] = test system: GLXMAW (Soybean, Williams); test: Postemergence herbicidal evaluation; format: in vivo, Glycine max, (L.) Merr. cv Williams; details: postemergence
Method in brief: (§3)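 Visual 0–9 injury scores versus control plants, covering stand, vigour, malformation, size, chlorosis and general appearance, taken four to five weeks post-spray and averaged over replicate tests. Plants were sprayed at roughly two weeks old and held on greenhouse benches.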

[5] = test system: AMBEL (Ambrosia artemisifolia); test: Preemergence herbicidal evaluation; format: in vivo, L.; details: rated 4-5 weeks after treatment
Method in brief: as §1

[6] = test system: CHEAL (Chenopodium album); test: Preemergence herbicidal evaluation; format: in vivo, L.; details: rated 4-5 weeks after treatment
Method in brief: as §1

[7] = test system: CASOB (Cassia obtusifolia); test: Preemergence herbicidal evaluation; format: in vivo, L.; details: rated 4-5 weeks after treatment
Method in brief: as §1

[8] = test system: GLXMAW (Soybean, Williams); test: Preemergence herbicidal evaluation; format: in vivo, Glycine max, (L.) Merr. cv Williams; details: rated 4-5 weeks after treatment
CYPIR (Cyperus iria) = test: Flooded paddy, preemergence weed control; format: in vivo; details: rated 3-4 weeks after treatment, 0-9 rating scale
Method in brief: as §2

[9] = test system: ABUTH (Abutilon theophrasti); test: Postemergence herbicidal evaluation; format: in vivo, Medic.; details: postemergence
Method in brief: as §3

ZEAMX (Corn, Field) = test: Preemergence herbicidal evaluation; format: in vivo, Zea mays, L.; details: rated 4-5 weeks after treatment
[10] = test system: IPOHE (Ipomoea hederacea); test: Postemergence herbicidal evaluation; format: in vivo, (L.) Jacq.; details: postemergence
Method in brief: as §3

ORYSAT (Rice, Tebonnet) [11] = test: Postemergence herbicidal evaluation; format: in vivo, Oryza sativa, (L.) Tebonnet; details: postemergence
Method in brief: as §3

[12] = test system: AMBEL (Ambrosia artemisifolia); test: Postemergence herbicidal evaluation; format: in vivo, L.; details: postemergence
Method in brief: as §3

[13] = test system: CHEAL (Chenopodium album); test: Postemergence herbicidal evaluation; format: in vivo, L.; details: postemergence
Method in brief: as §3

[14] = test system: CASOB (Cassia obtusifolia); test: Postemergence herbicidal evaluation; format: in vivo, L.; details: postemergence
Method in brief: as §3

[15] = test system: ABUTH (Abutilon theophrasti); test: Preemergence herbicidal evaluation; format: in vivo, Medic.; details: rated 4-5 weeks after treatment
ORYSAT (Rice, Tebonnet) [16] = test: Flooded paddy, post-transplant rice tolerance; format: in vivo, Oryza sativa, (L.) Tebonnet; details: flooded paddy, post-transplant rice, rated 3-4 weeks after treatment, 0-9 rating scale
Method in brief: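 Two ten-day-old seedlings were transplanted into silt loam, flooded and held at 1.5 to 3 cm water above the soil before herbicide treatment. Pots stayed in the greenhouse at that water level. Injury was scored visually on a 0-9 scale versus untreated control.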

[17] = test system: IPOHE (Ipomoea hederacea); test: Preemergence herbicidal evaluation; format: in vivo, (L.) Jacq.; details: rated 4-5 weeks after treatment

For Cn1c(C(F)(F)F)cc(=O)n(-c2ccc3snc(-c4sccc4Cl)c3c2)c1=O [Compound 52, 3-[3-(3-chloro-2-thienyl)-1,2-benzisothiazol-5-yl]-1-methyl-6-(trifluoromethyl)uracil], the “Preemergence herbicidal rating TRZAWR” value ([1]; Rate 0.0620 kg/ha) was 1.0, the “Preemergence herbicidal rating TRZAWR” value ([1]; Rate 0.1250 kg/ha) was 1.0 and the “Preemergence herbicidal rating TRZAWR” value ([1]; Rate 0.2500 kg/ha) was 3.0. For the same compound, the “Preemergence herbicidal rating SETVI” value (SETVI (Setaria viridis); Rate 0.0620 kg/ha) was 9.0, the “Preemergence herbicidal rating SETVI” value (SETVI (Setaria viridis); Rate 0.1250 kg/ha) was 9.0 and the “Preemergence herbicidal rating SETVI” value (SETVI (Setaria viridis); Rate 0.2500 kg/ha) was 9.0. For the same compound, the “Preemergence herbicidal rating ECHCG” value ([2]; Rate 0.0620 kg/ha) was 7.5, the “Preemergence herbicidal rating ECHCG” value ([2]; Rate 0.1250 kg/ha) was 8.5 and the “Preemergence herbicidal rating ECHCG” value ([2]; Rate 0.2500 kg/ha) was 9.0. The “herbicidal rating, MOOVA” value ([3]; rate 0.0080 kg/ha) was 9.0, the “herbicidal rating, MOOVA” value ([3]; rate 0.0320 kg/ha) was 9.0 and the “herbicidal rating, MOOVA” value ([3]; rate 0.1250 kg/ha) was 9.0. It also gave a GLXMAW herbicidal rating ([4]; rate 0.0320 kg/ha) of 7.5, a GLXMAW herbicidal rating ([4]; rate 0.0620 kg/ha) of 7.0 and a GLXMAW herbicidal rating ([4]; rate 0.1250 kg/ha) of 8.5. For the same compound, the “Preemergence herbicidal rating AMBEL” value ([5]; Rate 0.0620 kg/ha) was 3.5, the “Preemergence herbicidal rating AMBEL” value ([5]; Rate 0.1250 kg/ha) was 8.5 and the “Preemergence herbicidal rating AMBEL” value ([5]; Rate 0.2500 kg/ha) was 9.0. The “Preemergence herbicidal rating CHEAL” value ([6]; Rate 0.0620 kg/ha) was 9.0, the “Preemergence herbicidal rating CHEAL” value ([6]; Rate 0.1250 kg/ha) was 9.0 and the “Preemergence herbicidal rating CHEAL” value ([6]; Rate 0.2500 kg/ha) was 9.0. For the same compound, the “Preemergence herbicidal rating CASOB” value ([7]; Rate 0.0620 kg/ha) was 1.0, the “Preemergence herbicidal rating CASOB” value ([7]; Rate 0.1250 kg/ha) was 1.0 and the “Preemergence herbicidal rating CASOB” value ([7]; Rate 0.2500 kg/ha) was 4.0. For the same compound, the “Preemergence herbicidal rating GLXMAW” value ([8]; Rate 0.0620 kg/ha) was 1.5, the “Preemergence herbicidal rating GLXMAW” value ([8]; Rate 0.1250 kg/ha) was 4.0 and the “Preemergence herbicidal rating GLXMAW” value ([8]; Rate 0.2500 kg/ha) was 9.0. The “herbicidal rating, CYPIR” value (CYPIR (Cyperus iria); rate 0.0080 kg/ha) was 9.0, the “herbicidal rating, CYPIR” value (CYPIR (Cyperus iria); rate 0.0320 kg/ha) was 9.0 and the “herbicidal rating, CYPIR” value (CYPIR (Cyperus iria); rate 0.1250 kg/ha) was 9.0. For the same compound, the ABUTH herbicidal rating ([9]; rate 0.0320 kg/ha) was 9.0, the ABUTH herbicidal rating ([9]; rate 0.0620 kg/ha) was 9.0 and the ABUTH herbicidal rating ([9]; rate 0.1250 kg/ha) was 9.0. The “Preemergence herbicidal rating ZEAMX” value (ZEAMX (Corn, Field); Rate 0.0620 kg/ha) was 1.5, the “Preemergence herbicidal rating ZEAMX” value (ZEAMX (Corn, Field); Rate 0.1250 kg/ha) was 3.5 and the “Preemergence herbicidal rating ZEAMX” value (ZEAMX (Corn, Field); Rate 0.2500 kg/ha) was 7.0. The IPOHE herbicidal rating ([10]; rate 0.0320 kg/ha) was 9.0, the IPOHE herbicidal rating ([10]; rate 0.0620 kg/ha) was 9.0 and the IPOHE herbicidal rating ([10]; rate 0.1250 kg/ha) was 9.0. It also gave an ORYSAT herbicidal rating (ORYSAT (Rice, Tebonnet) [11]; rate 0.0320 kg/ha) of 3.0, an ORYSAT herbicidal rating (ORYSAT (Rice, Tebonnet) [11]; rate 0.0620 kg/ha) of 3.0 and an ORYSAT herbicidal rating (ORYSAT (Rice, Tebonnet) [11]; rate 0.1250 kg/ha) of 4.0. For the same compound, the AMBEL herbicidal rating ([12]; rate 0.0320 kg/ha) was 9.0, the AMBEL herbicidal rating ([12]; rate 0.0620 kg/ha) was 9.0 and the AMBEL herbicidal rating ([12]; rate 0.1250 kg/ha) was 9.0. It also gave a CHEAL herbicidal rating ([13]; rate 0.0320 kg/ha) of 5.0, a CHEAL herbicidal rating ([13]; rate 0.0620 kg/ha) of 5.0 and a CHEAL herbicidal rating ([13]; rate 0.1250 kg/ha) of 9.0. The CASOB herbicidal rating ([14]; rate 0.0320 kg/ha) was 1.0, the CASOB herbicidal rating ([14]; rate 0.0620 kg/ha) was 7.0 and the CASOB herbicidal rating ([14]; rate 0.1250 kg/ha) was 8.0. For the same compound, the “Preemergence herbicidal rating ABUTH” value ([15]; Rate 0.0620 kg/ha) was 9.0, the “Preemergence herbicidal rating ABUTH” value ([15]; Rate 0.1250 kg/ha) was 8.5 and the “Preemergence herbicidal rating ABUTH” value ([15]; Rate 0.2500 kg/ha) was 9.0. For the same compound, the “herbicidal rating, ORYSAT (rice tolerance)” value (“herbicidal rating, ORYSAT” below) (ORYSAT (Rice, Tebonnet) [16]; rate 0.0080 kg/ha) was 1.0, the “herbicidal rating, ORYSAT” value (ORYSAT (Rice, Tebonnet) [16]; rate 0.0320 kg/ha) was 3.7 and the “herbicidal rating, ORYSAT” value (ORYSAT (Rice, Tebonnet) [16]; rate 0.1250 kg/ha) was 5.7. For the same compound, the “Preemergence herbicidal rating IPOHE” value ([17]; Rate 0.0620 kg/ha) was 2.0, the “Preemergence herbicidal rating IPOHE” value ([17]; Rate 0.1250 kg/ha) was 3.0 and the “Preemergence herbicidal rating IPOHE” value ([17]; Rate 0.2500 kg/ha) was 6.0.
